“Also recorded” adds a separate entry of the source. Read-outs that look alike come from different tables or passages of the source.
Legend:
[1] = tested on: ZIKV; assay: Time of addition experiment; assay type: cell-based, Zika virus; settings: 0.75 μM added post-infection, titers at 48 hrs
Procedure: FIGS. 6A-6C show mechanism of action studies. […] Viral titers were quantified using plaque forming assay 48 hrs post-infection. DMSO was added to control. N=3. ***, p<0.001. […] N=3. […] Right, Band intensities of PP and NS3 normalized to the GAPDH control (N=3). […] Li et al., “Existing Drugs as Broad-Spectrum and Potent Inhibitors for Zika Virus by Targeting NS2B-NS3 Interaction,” Cell Res. 27:1046-1064 (2017), which is hereby incorporated by reference in its entirety. At 48 hrs post-infection, cells were washed, harvested, and protected by protease inhibitor cocktail prior to lysis by SDS-PAGE loading buffer. Upon incubation at 95° C. for 10 min, sample was subjected to Western blot analysis with anti-ZIKV NS3 (GTX133309, GeneTex, Inc.) and anti-GAPDH (CB1001, EMD Millipore) as primary antibodies. Error bars in all panels represent the standard deviations at each condition.
Antiviral inhibitors are generally divided into two categories, entry and post-entry (replication), respectively.

[2] = tested on: ZIKV strain PRVABC59 or ZIKV-Venus; assay: ZIKV infection of 3D mini-brain organoids; assay type: cell-based, Zika virus; settings: 1.5 μM
Text: Culturing of human iPSCs. Human iPSC F11350.1 culture was maintained in feed-free conditions using mTeSR1 medium (StemCell Technologies #85851) with 5× supplement (StemCell Technologies #85852). Cells were maintained on six-well plates coated with human embryonic stem cell-qualified Matrigel at a 1:60 dilution (Corning Catalog #354277) and passaged with ReLeSR (StemCell Technologies #05872). Cortical 3D organoids were generated based on the protocol described by Yoon et al. Yoon et al., “Reliability of Human Cortical Organoid Generation,” Nat. Methods. […] Briefly, iPSCs were dissociated with accutase (ThermoFisher #A1110501) and then plated at a density of 3×10^6 cells per well in AggreWell 800 24-well plate (StemCell Technologies #34811) in Essential 8™ medium (ThermoFisher #A1517001) supplemented with 10 μM rock inhibitor (Tocris #Y27632). The plate was centrifuged at 100×g for 3 min and incubated at 37° C. overnight. […]
To evaluate if JMX0207 protects organoids from ZIKV infections, a full-length infectious ZIKV clone expressing Venus fluorescent protein (ZIKV-Venus) was first generated. […] ZIKV infection was quantified by a plaque forming unit (PFU) assay at 5 dpi and by fluorescence imaging at 7 dpi, respectively. […]

[3] = tested on: DENV2; assay: Viral titer (plaque) reduction assay, DENV2 in A549 cells; assay type: cell-based, Dengue virus serotype 2; settings: Dengue virus, DENV2, A549 cells
Procedure: Viral Titer Reduction Assay. A viral titer reduction assay was used to determine the compounds' effect on DENV2 and ZIKV strains, as described previously. […] Human A549 lung carcinoma cells and human primary neural progenitor cells were used, as described previously. […] 13:e1006411 (2017), which are hereby incorporated by reference in their entirety. All experiments were performed in triplicates.
A viral plaque reduction assay was performed next to evaluate the antiviral efficacy of these derivatives. Human lung carcinoma A549 cells were infected with DENV2 in the presence of a concentration series of derivatives or a dimethyl sulfoxide (DMSO) control, and viral titers were measured at 48 hrs post-infection, as described previously.

Structure (SMILES): O=C(Nc1ccc([N+](=O)[O-])cc1Cl)c1cccc([N+](=O)[O-])c1O [JMX0207, N-(2-Chloro-4-nitrophenyl)-2-hydroxy-3-nitrobenzamide]
- reduction of ZIKV titer by time of addition [1]: equally effective in reducing ZIKV titer even at 24 hrs post-infection
- ZIKV infection of 3D organoid ([2]; MOI 1, imaging/immunostaining): completely abolished ZIKV infection; also recorded: nearly completely protected the organoids from ZIKV infection
- ZIKV production from 3D organoids ([2]; PFU assay at 5 dpi): ZIKV production was also significantly inhibited
- EC50 ([3]; 48 hrs post-infection, read-out: EC50-DN2 (A549)): 310 nM
- EC50 ([3]; Table 4, preliminary SAR, read-out: EC50-DN2): 360 nM
